Results: PMC10436550, “Subacute toxicity evaluations of LPM3480392 in rats, a full µ-opioid receptor biased agonist” (Frontiers in Pharmacology, 2023)
pEC50: −log10 of the molar value.

Experiments:
Sprague Dawley (SD) rats [1] = experiment: Histopathology, 4-week subacute toxicity study; format: in vivo, rat; settings: for Epididymis: Cell debris, lumen, Grade: 1 (minimal), animals / Epididymis: Cell debris, lumen, Grade: 3 (moderate), animals / Epididymis: Cell debris, lumen, Total Incidence / Epididymis: Sperm, decreased, lumen, Grade: 4 (marked), animals / Epididymis: Sperm, decreased, lumen, Total Incidence / Testis: Degeneration, tubule, Grade: 2 (mild), animals / Testis: Degeneration, tubule, Total Incidence: M
Experimental: The tissues in the Table 2 were preserved in 10% neutral phosphate-buffered formalin. Bilateral eyes, optic nerves, testes, epididymides and Harderian glands were fixed in modified Davidson’s solution. For all the above tissues in all groups, sampling, paraffin embedding, sectioning and hematoxylin-eosin staining was performed, followed by histopathology examination microscopically with light microscopy.

Sprague Dawley (SD) rats [2] = experiment: Gross necropsy; format: in vivo, rat; settings: end of dosing phase and recovery phase
Experimental: Complete gross necropsies were conducted on all surviving animals at the end of treatment (the day after the last dosing) and recovery periods. The following selected organs were weighed and evaluated in terms of organ/body or organ/brain weight ratios: brain, kidneys, adrenals, testes, ovaries, uterus, epididymides, thymus, spleen, heart and liver. Paired organs were weighed together. Organ-to-body weight ratio = Organ weight(g)/Body weight(g) × 100%, and Organ-to-brain weight ratio = Organ weight(g)/Brain weight(g) × 100%.

µ-opioid receptor (MOR) = tested on: µ-opioid receptor (MOR); parameters: method as in Yang et al., 2022; settings: ref Yang et al., 2022, cited from earlier work
Sprague Dawley (SD) rats [3] = experiment: Clinical chemistry, 4-week subacute toxicity study
[4] = 0.6 mg/kg/day, end of dosing phase, 10 examined
[5] = 1.2 mg/kg/day, end of dosing phase, 10 examined
[6] = 2.4 mg/kg/day, end of dosing phase, 9 examined
[7] = female rats, 0.6 mg/kg/day, End of dosing phase
[8] = female rats, 0.6 mg/kg/day, End of recovery phase
[9] = female rats, 1.2 mg/kg/day, End of dosing phase
[10] = female rats, 1.2 mg/kg/day, End of recovery phase
[11] = female rats, 2.4 mg/kg/day, End of dosing phase
[12] = female rats, 2.4 mg/kg/day, End of recovery phase
[13] = male rats, 0.6 mg/kg/day, End of dosing phase
[14] = male rats, 0.6 mg/kg/day, End of recovery phase
[15] = male rats, 1.2 mg/kg/day, End of dosing phase
[16] = male rats, 1.2 mg/kg/day, End of recovery phase
[17] = male rats, 2.4 mg/kg/day, End of dosing phase
[18] = male rats, 2.4 mg/kg/day, End of recovery phase

Fc1ccc([C@]2(CCNCc3cccc(Cl)c3)CCO[C@]3(CCOC3)C2)nc1 [LPM3480392]
Epididymis: Cell debris, lumen, Grade: 1 (minimal), animals (Sprague Dawley (SD) rats [1]; [4]): 0 | Epididymis: Cell debris, lumen, Grade: 3 (moderate), animals (Sprague Dawley (SD) rats [1]; [4]): 0 | Epididymis: Cell debris, lumen, Total Incidence (Sprague Dawley (SD) rats [1]; [4]): 0 | Epididymis: Sperm, decreased, lumen, Grade: 4 (marked), animals (Sprague Dawley (SD) rats [1]; [4]): 0 | Epididymis: Sperm, decreased, lumen, Total Incidence (Sprague Dawley (SD) rats [1]; [4]): 0 | Testis: Degeneration, tubule, Grade: 2 (mild), animals (Sprague Dawley (SD) rats [1]; [4]): 0 | Testis: Degeneration, tubule, Total Incidence (Sprague Dawley (SD) rats [1]; [4]): 0 | Epididymis: Cell debris, lumen, Grade: 1 (minimal), animals (Sprague Dawley (SD) rats [1]; [5]): 0 | Epididymis: Cell debris, lumen, Grade: 3 (moderate), animals (Sprague Dawley (SD) rats [1]; [5]): 0 | Epididymis: Cell debris, lumen, Total Incidence (Sprague Dawley (SD) rats [1]; [5]): 0 | Epididymis: Sperm, decreased, lumen, Grade: 4 (marked), animals (Sprague Dawley (SD) rats [1]; [5]): 0 | Epididymis: Sperm, decreased, lumen, Total Incidence (Sprague Dawley (SD) rats [1]; [5]): 0 | Testis: Degeneration, tubule, Grade: 2 (mild), animals (Sprague Dawley (SD) rats [1]; [5]): 0 | Testis: Degeneration, tubule, Total Incidence (Sprague Dawley (SD) rats [1]; [5]): 0 | Epididymis: Cell debris, lumen, Grade: 1 (minimal), animals (Sprague Dawley (SD) rats [1]; [6]): 1 | Epididymis: Cell debris, lumen, Grade: 3 (moderate), animals (Sprague Dawley (SD) rats [1]; [6]): 1 | Epididymis: Cell debris, lumen, Total Incidence (Sprague Dawley (SD) rats [1]; [6]): 2 | Epididymis: Sperm, decreased, lumen, Grade: 4 (marked), animals (Sprague Dawley (SD) rats [1]; [6]): 1 | Epididymis: Sperm, decreased, lumen, Total Incidence (Sprague Dawley (SD) rats [1]; [6]): 1 | Testis: Degeneration, tubule, Grade: 2 (mild), animals (Sprague Dawley (SD) rats [1]; [6]): 1 | Testis: Degeneration, tubule, Total Incidence (Sprague Dawley (SD) rats [1]; [6]): 1 | Microscopic changes in brain, heart, liver, spleen, lungs, kidney, adrenal gland, thymus, lymph node, gastrointestinal tract (Sprague Dawley (SD) rats [1]; end of dosing phase and recovery phase): no microscopic changes | Mild tubular degeneration of the testis, incidence (Sprague Dawley (SD) rats [1]; males, 2.4 mg/kg/day, end of dosing phase): 1/9 | Gross necropsy findings in main organs (Sprague Dawley (SD) rats [2]): no LPM3480392-related abnormalities | Emax, in vitro biased agonism (µ-opioid receptor (MOR)): 91.4% | pEC50 (µ-opioid receptor (MOR); read-out: EC50, in vitro biased agonism): 9.46 | A/G (Sprague Dawley (SD) rats [3]; [7]): 3.25 ± 0.35 | ALB (Sprague Dawley (SD) rats [3]; [7]): 43.3 ± 2.6 g/L | ALP (Sprague Dawley (SD) rats [3]; [7]): 87.4 ± 25.6 U/L | ALT (Sprague Dawley (SD) rats [3]; [7]): 24.9 ± 4.2 U/L | AST (Sprague Dawley (SD) rats [3]; [7]): 126.9 ± 16.0 U/L | CREA (Sprague Dawley (SD) rats [3]; [7]): 27.9 ± 2.4 µmol/L | GLU (Sprague Dawley (SD) rats [3]; [7]): 6.20 ± 0.43 mmol/L | TBIL (Sprague Dawley (SD) rats [3]; [7]): 1.0 ± 0.5 µmol/L | TG (Sprague Dawley (SD) rats [3]; [7]): 0.19 ± 0.05 mmol/L | TP (Sprague Dawley (SD) rats [3]; [7]): 56.7 ± 2.2 g/L | A/G (Sprague Dawley (SD) rats [3]; [8]): 2.68 ± 0.12 | ALB (Sprague Dawley (SD) rats [3]; [8]): 46.4 ± 2.4 g/L | ALP (Sprague Dawley (SD) rats [3]; [8]): 60.5 ± 13.8 U/L | ALT (Sprague Dawley (SD) rats [3]; [8]): 29.0 ± 6.6 U/L | AST (Sprague Dawley (SD) rats [3]; [8]): 103.0 ± 8.5 U/L | CREA (Sprague Dawley (SD) rats [3]; [8]): 36.2 ± 3.7 µmol/L | GLU (Sprague Dawley (SD) rats [3]; [8]): 7.01 ± 0.37 mmol/L | TBIL (Sprague Dawley (SD) rats [3]; [8]): 1.1 ± 0.5 µmol/L | TG (Sprague Dawley (SD) rats [3]; [8]): 0.28 ± 0.08 mmol/L | TP (Sprague Dawley (SD) rats [3]; [8]): 63.8 ± 2.6 g/L | A/G (Sprague Dawley (SD) rats [3]; [9]): 2.70 ± 0.42 | ALB (Sprague Dawley (SD) rats [3]; [9]): 40.1 ± 2.0 g/L | ALP (Sprague Dawley (SD) rats [3]; [9]): 95.9 ± 26.3 U/L | ALT (Sprague Dawley (SD) rats [3]; [9]): 28.0 ± 8.0 U/L | AST (Sprague Dawley (SD) rats [3]; [9]): 122.5 ± 16.8 U/L | CREA (Sprague Dawley (SD) rats [3]; [9]): 29.4 ± 2.4 µmol/L | GLU (Sprague Dawley (SD) rats [3]; [9]): 6.44 ± 0.43 mmol/L | TBIL (Sprague Dawley (SD) rats [3]; [9]): 0.7 ± 0.2 µmol/L | TG (Sprague Dawley (SD) rats [3]; [9]): 0.19 ± 0.03 mmol/L | TP (Sprague Dawley (SD) rats [3]; [9]): 55.2 ± 2.1 g/L | A/G (Sprague Dawley (SD) rats [3]; [10]): 2.63 ± 0.37 | ALB (Sprague Dawley (SD) rats [3]; [10]): 47.0 ± 3.5 g/L | ALP (Sprague Dawley (SD) rats [3]; [10]): 51.5 ± 17.8 U/L | ALT (Sprague Dawley (SD) rats [3]; [10]): 29.2 ± 2.7 U/L | AST (Sprague Dawley (SD) rats [3]; [10]): 95.9 ± 16.3 U/L | CREA (Sprague Dawley (SD) rats [3]; [10]): 35.2 ± 1.3 µmol/L | GLU (Sprague Dawley (SD) rats [3]; [10]): 6.80 ± 0.80 mmol/L | TBIL (Sprague Dawley (SD) rats [3]; [10]): 1.2 ± 0.3 µmol/L | TG (Sprague Dawley (SD) rats [3]; [10]): 0.27 ± 0.03 mmol/L | TP (Sprague Dawley (SD) rats [3]; [10]): 65.1 ± 4.0 g/L | A/G (Sprague Dawley (SD) rats [3]; [11]): 2.64 ± 0.37 | ALB (Sprague Dawley (SD) rats [3]; [11]): 39.9 ± 1.9 g/L | ALP (Sprague Dawley (SD) rats [3]; [11]): 124.1 ± 41.1 U/L | ALT (Sprague Dawley (SD) rats [3]; [11]): 28.7 ± 4.2 U/L | AST (Sprague Dawley (SD) rats [3]; [11]): 132.4 ± 15.4 U/L | CREA (Sprague Dawley (SD) rats [3]; [11]): 24.4 ± 1.5 µmol/L | GLU (Sprague Dawley (SD) rats [3]; [11]): 6.66 ± 0.45 mmol/L | TBIL (Sprague Dawley (SD) rats [3]; [11]): 0.7 ± 0.2 µmol/L | TG (Sprague Dawley (SD) rats [3]; [11]): 0.16 ± 0.03 mmol/L | TP (Sprague Dawley (SD) rats [3]; [11]): 55.2 ± 1.4 g/L | A/G (Sprague Dawley (SD) rats [3]; [12]): 2.55 ± 0.13 | ALB (Sprague Dawley (SD) rats [3]; [12]): 45.5 ± 2.1 g/L | ALP (Sprague Dawley (SD) rats [3]; [12]): 59.2 ± 16.1 U/L | ALT (Sprague Dawley (SD) rats [3]; [12]): 34.0 ± 7.0 U/L | AST (Sprague Dawley (SD) rats [3]; [12]): 105.9 ± 15.9 U/L | CREA (Sprague Dawley (SD) rats [3]; [12]): 32.5 ± 3.1 µmol/L | GLU (Sprague Dawley (SD) rats [3]; [12]): 6.61 ± 0.24 mmol/L | TBIL (Sprague Dawley (SD) rats [3]; [12]): 0.9 ± 0.6 µmol/L | TG (Sprague Dawley (SD) rats [3]; [12]): 0.30 ± 0.06 mmol/L | TP (Sprague Dawley (SD) rats [3]; [12]): 63.4 ± 3.3 g/L | Increased AST and GLU and decreased CREA, magnitude (Sprague Dawley (SD) rats [3]; female rats, all LPM3480392 groups): < 18% | Decreased ALB, magnitude (Sprague Dawley (SD) rats [3]; females, all LPM3480392 groups): < 18% | Decreased TP, magnitude (Sprague Dawley (SD) rats [3]; females, all LPM3480392 groups): < 18% | A/G (Sprague Dawley (SD) rats [3]; [13]): 3.02 ± 0.34 | ALB (Sprague Dawley (SD) rats [3]; [13]): 39.8 ± 2.0 g/L | GLU (Sprague Dawley (SD) rats [3]; [13]): 5.90 ± 0.48 mmol/L | TG (Sprague Dawley (SD) rats [3]; [13]): 0.21 ± 0.06 mmol/L | TP (Sprague Dawley (SD) rats [3]; [13]): 53.0 ± 2.3 g/L | A/G (Sprague Dawley (SD) rats [3]; [14]): 2.10 ± 0.18 | ALB (Sprague Dawley (SD) rats [3]; [14]): 37.4 ± 0.4 g/L | GLU (Sprague Dawley (SD) rats [3]; [14]): 7.26 ± 0.55 mmol/L | TG (Sprague Dawley (SD) rats [3]; [14]): 0.26 ± 0.16 mmol/L | TP (Sprague Dawley (SD) rats [3]; [14]): 55.2 ± 1.7 g/L | A/G (Sprague Dawley (SD) rats [3]; [15]): 3.03 ± 0.37 | ALB (Sprague Dawley (SD) rats [3]; [15]): 38.4 ± 2.0 g/L | GLU (Sprague Dawley (SD) rats [3]; [15]): 6.39 ± 0.32 mmol/L | TG (Sprague Dawley (SD) rats [3]; [15]): 0.19 ± 0.05 mmol/L | TP (Sprague Dawley (SD) rats [3]; [15]): 51.3 ± 2.3 g/L | A/G (Sprague Dawley (SD) rats [3]; [16]): 2.05 ± 0.08 | ALB (Sprague Dawley (SD) rats [3]; [16]): 36.6 ± 0.8 g/L | GLU (Sprague Dawley (SD) rats [3]; [16]): 6.64 ± 0.99 mmol/L | TG (Sprague Dawley (SD) rats [3]; [16]): 0.33 ± 0.12 mmol/L | TP (Sprague Dawley (SD) rats [3]; [16]): 54.5 ± 0.6 g/L | A/G (Sprague Dawley (SD) rats [3]; [17]): 2.94 ± 0.30 | ALB (Sprague Dawley (SD) rats [3]; [17]): 38.0 ± 1.6 g/L | GLU (Sprague Dawley (SD) rats [3]; [17]): 6.76 ± 0.56 mmol/L | TG (Sprague Dawley (SD) rats [3]; [17]): 0.17 ± 0.05 mmol/L | TP (Sprague Dawley (SD) rats [3]; [17]): 51.0 ± 1.4 g/L | A/G (Sprague Dawley (SD) rats [3]; [18]): 2.25 ± 0.27 | ALB (Sprague Dawley (SD) rats [3]; [18]): 37.7 ± 0.7 g/L | GLU (Sprague Dawley (SD) rats [3]; [18]): 6.53 ± 0.83 mmol/L | TG (Sprague Dawley (SD) rats [3]; [18]): 0.31 ± 0.12 mmol/L | TP (Sprague Dawley (SD) rats [3]; [18]): 54.6 ± 1.7 g/L | Decreased ALB, magnitude (Sprague Dawley (SD) rats [3]; males, all LPM3480392 groups): < 10% | Decreased GLU, magnitude (Sprague Dawley (SD) rats [3]; males, all LPM3480392 groups): < 20% | Decreased TG, magnitude (Sprague Dawley (SD) rats [3]; males, all LPM3480392 groups): < 49% | Decreased TP, magnitude (Sprague Dawley (SD) rats [3]; males, all LPM3480392 groups): < 10%
